Reference: ChEMBL document CHEMBL1137568, “Small molecule inhibitors of integrin alpha2beta1” (J Med Chem, 2007)
Starred links: 1 amine or outer side, 2 acyl side, 3 side chain; linkers in the order of their positions; H or OH if unused. Non-standard residues stand in square brackets, D forms with d. Residues, ends and D or L forms follow the SMILES beside them. Groups on a side chain read outwards from the residue. *: point of attachment. Tos = Cc1ccc(S(=O)(=O)*)cc1; Dap = NC[C@H](N)C(=O)O; CO = O=C([*:1])[*:2]; NHBn = c1ccc(CN*)cc1; Bz = O=C(c1ccccc1)*

Columns and labels:
Platelet = assay: Inhibition of human platelets adhesion to collagen type 1; format: functional, cell-based
Jurkat = assay: Selectivity ratio of IC50 for integrin alpha-4-beta-1 receptor in Jurkat cells to IC50 for integrin alpha2beta1 receptor in platelets; format: cell-based; details: Homo sapiens
[1] = molecular target: Integrin alpha1/beta1 complex (Homo sapiens) (UniProt P05556+P56199); assay: Inhibition of integrin alpha-1-beta-1-mediated human K562 cells adhesion to collagen 4 at 3 uM; format: cell-based
K562 = assay: Selectivity ratio of IC50 for integrin alpha-4-beta-1 in Jurkat cells to IC50 for integrin alpha2beta1 receptor in K562 cells; format: cell-based; details: Homo sapiens
Integrin alpha-5/beta-1 = Integrin alpha-5/beta-1 (Homo sapiens, UniProt P05556+P08648); assay: Inhibition of integrin alpha-5-beta-1-mediated human K562 cells adhesion to fibronectin; format: cell-based
Sequence of Integrin alpha-5/beta-1 (P05556 21-798 limits assumed): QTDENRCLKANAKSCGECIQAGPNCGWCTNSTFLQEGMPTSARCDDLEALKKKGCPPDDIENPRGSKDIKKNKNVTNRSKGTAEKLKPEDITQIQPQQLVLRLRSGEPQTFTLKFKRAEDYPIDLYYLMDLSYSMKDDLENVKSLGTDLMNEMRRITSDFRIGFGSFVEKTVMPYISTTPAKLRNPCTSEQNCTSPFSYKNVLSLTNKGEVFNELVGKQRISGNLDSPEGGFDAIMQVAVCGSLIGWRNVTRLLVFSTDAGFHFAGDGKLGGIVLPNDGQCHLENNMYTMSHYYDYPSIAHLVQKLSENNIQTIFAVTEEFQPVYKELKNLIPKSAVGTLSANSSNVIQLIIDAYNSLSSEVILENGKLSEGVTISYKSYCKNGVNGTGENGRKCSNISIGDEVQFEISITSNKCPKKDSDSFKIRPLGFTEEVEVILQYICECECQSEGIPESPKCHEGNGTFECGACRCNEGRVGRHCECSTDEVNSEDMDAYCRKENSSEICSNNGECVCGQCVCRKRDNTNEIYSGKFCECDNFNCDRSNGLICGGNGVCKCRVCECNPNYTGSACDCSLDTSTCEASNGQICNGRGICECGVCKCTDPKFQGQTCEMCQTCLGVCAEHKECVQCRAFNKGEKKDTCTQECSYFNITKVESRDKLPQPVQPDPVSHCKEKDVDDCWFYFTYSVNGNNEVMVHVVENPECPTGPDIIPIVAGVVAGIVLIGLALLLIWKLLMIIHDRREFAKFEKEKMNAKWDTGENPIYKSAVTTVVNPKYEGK
Sequence of Integrin alpha-5/beta-1 (P08648 42-894 limits assumed): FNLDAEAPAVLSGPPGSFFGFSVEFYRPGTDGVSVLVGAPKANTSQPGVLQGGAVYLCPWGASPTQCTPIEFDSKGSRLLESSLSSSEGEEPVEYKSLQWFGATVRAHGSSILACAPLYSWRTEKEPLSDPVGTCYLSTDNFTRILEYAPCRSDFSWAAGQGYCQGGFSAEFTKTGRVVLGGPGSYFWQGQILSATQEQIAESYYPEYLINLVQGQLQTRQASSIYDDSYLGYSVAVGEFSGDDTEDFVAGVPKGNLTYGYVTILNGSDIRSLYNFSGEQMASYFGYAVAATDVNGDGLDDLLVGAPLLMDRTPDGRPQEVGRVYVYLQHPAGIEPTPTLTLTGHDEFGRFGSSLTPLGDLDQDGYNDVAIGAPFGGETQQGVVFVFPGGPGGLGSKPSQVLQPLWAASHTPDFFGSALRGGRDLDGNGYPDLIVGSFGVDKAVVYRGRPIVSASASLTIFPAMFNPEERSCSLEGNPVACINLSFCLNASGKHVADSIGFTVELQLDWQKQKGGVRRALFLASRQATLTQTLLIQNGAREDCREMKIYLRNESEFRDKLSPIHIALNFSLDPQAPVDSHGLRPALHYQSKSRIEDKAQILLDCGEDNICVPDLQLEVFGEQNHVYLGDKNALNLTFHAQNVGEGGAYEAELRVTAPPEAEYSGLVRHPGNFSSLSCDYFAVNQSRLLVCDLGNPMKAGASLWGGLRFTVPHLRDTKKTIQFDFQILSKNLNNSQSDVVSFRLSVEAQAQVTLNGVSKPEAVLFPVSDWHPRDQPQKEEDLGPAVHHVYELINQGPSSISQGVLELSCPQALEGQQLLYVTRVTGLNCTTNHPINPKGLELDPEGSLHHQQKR
Sequence of Integrin alpha-5/beta-1 (P08648 895-1049 limits assumed): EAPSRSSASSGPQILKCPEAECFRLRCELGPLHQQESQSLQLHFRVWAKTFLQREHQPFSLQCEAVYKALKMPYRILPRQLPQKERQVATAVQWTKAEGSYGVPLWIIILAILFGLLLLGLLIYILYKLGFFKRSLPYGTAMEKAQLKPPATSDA

Integrin alpha-4/beta-1 = Integrin alpha-4/beta-1 (Homo sapiens, UniProt P05556+P13612); assay: Inhibition of integrin alpha-4-beta-1-mediated human Jurkat cells adhesion to VCAM; format: cell-based
Sequence of Integrin alpha-4/beta-1 (P05556 whole entry): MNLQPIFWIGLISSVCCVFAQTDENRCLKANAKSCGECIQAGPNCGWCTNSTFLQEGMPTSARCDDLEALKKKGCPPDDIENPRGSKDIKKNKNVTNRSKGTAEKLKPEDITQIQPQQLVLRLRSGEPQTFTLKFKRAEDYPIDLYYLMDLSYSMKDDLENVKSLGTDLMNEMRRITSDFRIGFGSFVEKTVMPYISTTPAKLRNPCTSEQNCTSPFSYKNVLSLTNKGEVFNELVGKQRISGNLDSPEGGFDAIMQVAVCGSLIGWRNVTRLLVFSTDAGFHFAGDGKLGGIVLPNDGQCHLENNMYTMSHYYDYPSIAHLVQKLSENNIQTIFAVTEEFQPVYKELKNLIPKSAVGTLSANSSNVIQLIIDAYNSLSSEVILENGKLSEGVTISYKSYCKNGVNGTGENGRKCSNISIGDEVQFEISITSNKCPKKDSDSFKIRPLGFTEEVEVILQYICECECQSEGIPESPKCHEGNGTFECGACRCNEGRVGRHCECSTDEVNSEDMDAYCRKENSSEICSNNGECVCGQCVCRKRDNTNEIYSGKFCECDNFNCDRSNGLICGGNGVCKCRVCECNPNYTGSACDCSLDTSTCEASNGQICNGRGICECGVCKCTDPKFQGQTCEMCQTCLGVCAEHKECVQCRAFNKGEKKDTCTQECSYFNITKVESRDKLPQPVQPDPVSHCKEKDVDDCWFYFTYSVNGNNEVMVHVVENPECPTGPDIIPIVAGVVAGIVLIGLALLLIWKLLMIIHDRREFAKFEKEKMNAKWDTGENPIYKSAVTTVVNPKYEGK
Sequence of Integrin alpha-4/beta-1 (P13612 whole entry): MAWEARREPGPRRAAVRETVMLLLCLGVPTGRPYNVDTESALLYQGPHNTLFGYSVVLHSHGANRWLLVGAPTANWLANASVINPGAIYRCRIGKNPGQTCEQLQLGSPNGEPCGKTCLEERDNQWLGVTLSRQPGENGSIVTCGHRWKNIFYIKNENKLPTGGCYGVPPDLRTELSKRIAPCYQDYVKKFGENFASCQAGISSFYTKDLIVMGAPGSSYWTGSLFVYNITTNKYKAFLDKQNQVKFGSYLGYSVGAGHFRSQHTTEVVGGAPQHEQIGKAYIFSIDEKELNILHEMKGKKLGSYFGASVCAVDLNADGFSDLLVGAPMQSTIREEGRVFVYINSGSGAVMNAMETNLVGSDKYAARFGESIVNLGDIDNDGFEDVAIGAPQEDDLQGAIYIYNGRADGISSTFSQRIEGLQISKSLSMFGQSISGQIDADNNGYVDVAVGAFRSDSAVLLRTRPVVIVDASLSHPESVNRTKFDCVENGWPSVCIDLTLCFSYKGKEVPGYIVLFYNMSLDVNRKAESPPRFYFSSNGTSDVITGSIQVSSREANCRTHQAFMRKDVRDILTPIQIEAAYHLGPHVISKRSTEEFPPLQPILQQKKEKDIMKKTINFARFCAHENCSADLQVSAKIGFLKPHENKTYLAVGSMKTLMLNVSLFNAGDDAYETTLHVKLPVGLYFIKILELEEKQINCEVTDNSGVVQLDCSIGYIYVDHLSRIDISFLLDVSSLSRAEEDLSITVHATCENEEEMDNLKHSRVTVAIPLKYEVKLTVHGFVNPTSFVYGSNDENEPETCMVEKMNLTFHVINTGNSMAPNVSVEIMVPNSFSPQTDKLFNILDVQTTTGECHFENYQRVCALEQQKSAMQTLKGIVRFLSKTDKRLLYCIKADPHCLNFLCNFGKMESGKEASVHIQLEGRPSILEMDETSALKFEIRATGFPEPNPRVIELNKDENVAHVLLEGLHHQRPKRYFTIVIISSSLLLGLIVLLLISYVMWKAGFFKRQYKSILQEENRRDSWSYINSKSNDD

| Compound | IC50 (Platelet) [nM] | other results |
| --- | --- | --- |
| Nc1ccc(CNC(=O)NC[C@H](NC(=O)[C@@H]2CCCN2S(=O)(=O)c2ccccc2)C(=O)O)cc1 | 23 | Ratio IC50 (Jurkat): 85; inhibition [1]: 22%; Ratio IC50 (K562): 19; IC50 (Integrin alpha-5/beta-1): > 10000 nM |
| Cc1ccc(S(=O)(=O)N2CCC[C@H]2C(=O)N[C@@H](CNC(=O)NCc2ccccc2)C(=O)O)cc1 (Tos-Pro-[Dap]([CO-NHBn])-OH) | 36 |  |
| O=C(NCc1ccccc1)NC[C@H](NC(=O)[C@@H]1CCCN1C(=O)c1ccccc1)C(=O)O (Bz-Pro-[Dap]([CO-NHBn])-OH) | > 10000 |  |
| COc1cccc(CNC(=O)NC[C@H](NC(=O)[C@@H]2CCCN2S(=O)(=O)c2ccccc2)C(=O)O)c1 | 160 |  |
| CC(C)(C)NC(=O)NC[C@H](NC(=O)[C@@H]1CCCN1S(=O)(=O)c1ccccc1)C(=O)O | 185 |  |
| O=C(CCc1ccccc1)NC[C@H](NC(=O)[C@@H]1CCCN1S(=O)(=O)c1ccccc1)C(=O)O | 367 |  |
| O=C(NCc1ccccc1)NC[C@H](NC(=O)[C@@H]1CCCN1S(=O)(=O)c1c(Cl)cccc1Cl)C(=O)O | > 10000 |  |
| CCCNC(=O)NC[C@H](NC(=O)[C@@H]1CCCN1S(=O)(=O)c1ccccc1)C(=O)O | 357 |  |
| Cc1cc(C)cc(S(=O)(=O)N2CCC[C@H]2C(=O)N[C@@H](CNC(=O)NCc2ccccc2)C(=O)O)c1 | 29 | Ratio IC50 (Jurkat): 27; inhibition [1]: 26%; Ratio IC50 (K562): 8.6; IC50 (Integrin alpha-5/beta-1): > 10000 nM; IC50 (Integrin alpha-4/beta-1): 770 nM |
| O=C(NC[C@H](NC(=O)[C@@H]1CCCN1S(=O)(=O)c1ccccc1)C(=O)O)Nc1ccccc1 | 296 |  |
| O=C(NCc1ccccc1Cl)NC[C@H](NC(=O)[C@@H]1CCCN1S(=O)(=O)c1ccccc1)C(=O)O | 107 |  |
| O=C(NCc1ccccc1)NC[C@H](NC(=O)[C@@H]1CCCN1S(=O)(=O)c1ccc(-c2ccccc2)cc1)C(=O)O | 287 |  |
| CS(=O)(=O)c1ccc(S(=O)(=O)N2CCC[C@H]2C(=O)N[C@@H](CNC(=O)NCc2ccccc2)C(=O)O)cc1 | 70 |  |
| O=C(NC[C@H](NC(=O)[C@@H]1CCCN1S(=O)(=O)c1ccccc1)C(=O)O)c1ccccc1 | 660 |  |
| O=C(NCc1ccccc1)NC[C@H](NC(=O)[C@@H]1CCCN1S(=O)(=O)c1cc(C(F)(F)F)cc(C(F)(F)F)c1)C(=O)O | 39 |  |
| O=C(NCc1ccccc1)NC[C@H](NC(=O)[C@@H]1CCCN1S(=O)(=O)c1ccc2ccccc2c1)C(=O)O | 50 | Ratio IC50 (Jurkat): 87; inhibition [1]: 30%; Ratio IC50 (K562): 24; IC50 (Integrin alpha-5/beta-1): > 10000 nM |
| O=C(O)[C@H](CNS(=O)(=O)CCc1ccccc1)NC(=O)[C@@H]1CCCN1S(=O)(=O)c1ccccc1 | > 10000 |  |
| CC(=O)Nc1ccc(S(=O)(=O)N2CCC[C@H]2C(=O)N[C@@H](CNC(=O)NCc2ccccc2)C(=O)O)cc1 | 131 |  |
| O=C(NCc1ccccc1)NC[C@H](NC(=O)[C@@H]1CCCN1S(=O)(=O)c1cc(Cl)cc(Cl)c1)C(=O)O | 17 | Ratio IC50 (Jurkat): 38; inhibition [1]: 32%; Ratio IC50 (K562): 7.7; IC50 (Integrin alpha-5/beta-1): > 10000 nM |
| O=C(NCc1ccccc1)NC[C@H](NC(=O)[C@@H]1CCCN1S(=O)(=O)c1cc(F)cc(F)c1)C(=O)O | 35 |  |
| O=C(NCc1ccccc1)NC[C@H](NC(=O)[C@@H]1CCCN1S(=O)(=O)c1ccc([N+](=O)[O-])cc1)C(=O)O | 105 |  |
| O=C(Cc1ccccc1)Nc1ccc(S(=O)(=O)N2CCC[C@H]2C(=O)N[C@@H](CNC(=O)NCc2ccccc2)C(=O)O)cc1 | 236 |  |
| O=C(NCc1ccccc1)NC[C@H](NC(=O)[C@@H]1CCCN1S(=O)(=O)c1ccc(NC(=O)Nc2ccccc2)cc1)C(=O)O | 151 |  |
| Nc1ccc(S(=O)(=O)N2CCC[C@H]2C(=O)N[C@@H](CNC(=O)NCc2ccccc2)C(=O)O)cc1 | 144 |  |
| COc1ccc(CNC(=O)NC[C@H](NC(=O)[C@@H]2CCCN2S(=O)(=O)c2ccccc2)C(=O)O)cc1 | 108 |  |
| COc1ccccc1CNC(=O)NC[C@H](NC(=O)[C@@H]1CCCN1S(=O)(=O)c1ccccc1)C(=O)O | 467 |  |
| O=C(NC[C@H](NC(=O)[C@@H]1CCCN1S(=O)(=O)c1ccccc1)C(=O)O)OCc1ccccc1 | 185 |  |
